Our source for the IC50, Activity and Drug uptake values is ChEMBL document CHEMBL4219154, “Design, synthesis, nuclear localization, and biological activity of a fluorescent duocarmycin analog, HxTfA” (Bioorg Med Chem Lett, 2018).

Series [1] relates to A549. As to the kind of experiment: Cytotoxicity against human A549 cells after 4 days by MTT assay. The note with it: A549, 96 h. The class given is functional, cell-based. For orientation: Tetrazolium dyes change colour on reduction, which living cells bring about.
For the next series, the system named is Plasmodium falciparum. Briefly: Antiplasmodial activity against Plasmodium falciparum 3D7 infected in red blood cells after 48 hrs. The series is classed as functional, organism-based. Conditions: 3D7, 48 h.
The subject of series [2] is Escherichia coli. As to the kind of experiment: Alkylating activity at N3 position of 5'-AAAAA-3' (865) in Escherichia coli pUC18 DNA at 1 uM after 5 hrs by electrophoresis analysis. The class given is functional.
The subject of series [3] is Escherichia coli. As to the kind of experiment: Induction of DNA cleavage at AT-mixed sequence 5'-TTTTA-3'(843) in Escherichia coli pUC18 DNA at 0.1 to 30 uM after 5 hrs by electrophoresis analysis.
A short description of series [4]: Drug uptake in nucleus of human A549 cells at 1 uM after 24 hrs by propidium iodide staining based confocal microscopy. The series is classed as ADME, subcellular. Conditions: a549, 24 h.
A short description of series [5]: Drug uptake in nucleus of human A549 cells at 50 to 100 uM after 24 hrs by mitrotracker red CMXRos staining based fluorescence microscopy. The class given is ADME, subcellular. Conditions: a549, 24 h.
Series [6] relates to A549. As to the kind of experiment: Induction of apoptosis in human A549 cells assessed as decrease in survivin level at 1 to 20 uM incubated for 5 hrs followed by 24 hrs incubation in drug free medium by immunoblotting based confocal microscopy. The class given is functional, cell-based.
In series [7] the test system is A549. Briefly: Induction of apoptosis in human A549 cells assessed as decrease in Bcl-xL level at 0.1 to 20 uM incubated for 5 hrs followed by 24 hrs incubation in drug free medium by immunoblotting based confocal microscopy. The class given is functional, cell-based.
The subject of series [8] is A549. Briefly: Induction of apoptosis in human A549 cells assessed as increase in cleaved caspase 3 level at 1 uM incubated for 5 hrs followed by 24 hrs incubation in drug free medium by immunofluorescence assay. The series is classed as functional, cell-based.
Series [9] relates to A549. Briefly: Induction of apoptosis in human A549 cells assessed as increase in gamma-H2AX level at 0.1 to 10 uM incubated for 5 hrs followed by 24 hrs incubation in drug free medium by immunofluorescence assay. The class given is functional, cell-based.
For series [10], the system named is A549. As to the kind of experiment: Induction of apoptosis in human A549 cells assessed as increase in gamma-H2AX level at 0.1 to 5 uM incubated for 5 hrs followed by 24 hrs incubation in drug free medium by confocal microscopy. The class given is functional, cell-based.
Series [11] deals with A549. Briefly: Cytotoxicity against human A549 cells after 3 days by MTT assay. The class given is functional, cell-based. Conditions: A549, 72 h.
The next series concerns B16. Briefly: Cytotoxicity against mouse B16 cells after 3 days by MTT assay. The class given is functional, cell-based. The note with it: B16, 72 h.
The test system of series [12] is Escherichia coli. As to the kind of experiment: Alkylating activity at N3 position of 5'-AAAAA-3' (865) in Escherichia coli pUC18 DNA at 0.1 uM after 5 hrs by electrophoresis analysis. The class given is functional.
For series [13], the system named is A549. Briefly: Induction of apoptosis in human A549 cells assessed as decrease in survivin level at 0.1 uM incubated for 5 hrs followed by 24 hrs incubation in drug free medium by immunoblotting based confocal microscopy. The series is classed as functional, cell-based. (In general: In western blotting, separated proteins are transferred to a membrane and probed.)

Series [14] relates to A549. Briefly: Induction of apoptosis in human A549 cells assessed as decrease in Bcl-xL level at 0.05 to 20 uM incubated for 5 hrs followed by 24 hrs incubation in drug free medium by immunoblotting based confocal microscopy. The class given is functional, cell-based.

Activity calls are given as the source filed them. The calls are words filed in the database; no cut-off is given here.

What is called IC50 is the concentration at which inhibition is half-maximal. A low value points to higher potency.

Consider `COc1ccc(-c2nc3ccc(C(=O)N4CC(CCl)c5c4cc(O)c4ccoc54)cc3[nH]2)cc1` (stereo not given), for which the results for the IC50 in the series on A549 [1] and with Plasmodium falciparum were 26 nM and 3.7 nM, respectively. Further, the result with Escherichia coli [2], in the series on Escherichia coli [3], in the series with A549 [6], in the series with A549 [8], in the series on A549 [9] and in the series on A549 [10] was Active. Also, the Drug uptake entry in series [4] and in series [5] was “Active” throughout. Also, the outcome in the series on A549 [7] was inactive.
On to `COc1cc2cc(C(=O)N3CC(CCl)c4c3cc(O)c3ccoc43)[nH]c2c(OC)c1OC` (stereo not given), for which the IC50 with A549 [1] came out at 3.7 nM; in the series with Plasmodium falciparum, 0.064 nM; in the series on A549 [11] it was 53 nM; in the series with B16, 40 nM. Further, the outcome with Escherichia coli [12], in the series with A549 [13], in the series on A549 [9] and with A549 [10] was Active. The outcome in the series on A549 [14] was inactive.
